Data set [1] relates to MCF7 WT Brk expressing cells. Description: PI staining and FACS analysis, % G1 content. In kind it is cell-based, human. Conditions: PD0332991 up to 100 nM. As to the method: Immunoprecipitation with IgG served as a negative control (FIG. 6C). DNA with Hoechst stain is in blue and is merged with red and green staining (FIG. 6D). (FIG. 6E) Cdk4 was immunoprecipitated from the lysates and recombinant Rb was added to perform an in vitro kinase assay in the presence of ATP Immunoblot analysis was performed to probe for Rb, Ser780 pRb and cdk4 Immunoprecipitation with IgG served as a negative control. (FIG. 6F) Cells were treated with different concentrations of PD0332291 or DMSO as a control at Day 2. Total cell numbers were analyzed by counting 24 and 48 hours post treatment to determine IC50 values. (FIG. 6G) Cells were treated with different concentration of PD032291 or DMSO and analyzed by PI staining and FACS analysis. % G1 content is plotted.
The PCR fragments were ligated to the T7pGEMEX human His-p27 or T7pGEMEX human Flag-p27 plasmid for expression in E. coli. Mutants Y74F, Y88F, and Y88/89F were previously described (12). Flag-tagged p27 mutants were purified by Flag-immunoprecipitation with Flag antibody (M-2, Sigma F-18C9) and eluted with Flag peptide (Sigma F-4799) according to manufacturer's protocol. His-tagged p27 mutants were purified by FPLC via his-trap affinity chromatography (His-Trap HP, GE Healthcare 71-5247-01). The affinity column was stripped according to manufacturer's protocol, then washed with 5 column volumes of 100 mM CoCl2. […]

Data set [2] relates to MCF7 mock, WT, KM and YF cells. Put plainly: Viability of PD0332991 treated Brk expressing MCF7 lines. In kind it is cell-based, human. The settings on record: all concentrations of the drug. The source says: The PCR fragments were ligated to the T7pGEMEX human His-p27 or T7pGEMEX human Flag-p27 plasmid for expression in E. coli. Mutants Y74F, Y88F, and Y88/89F were previously described (12). Flag-tagged p27 mutants were purified by Flag-immunoprecipitation with Flag antibody (M-2, Sigma F-18C9) and eluted with Flag peptide (Sigma F-4799) according to manufacturer's protocol. His-tagged p27 mutants were purified by FPLC via his-trap affinity chromatography (His-Trap HP, GE Healthcare 71-5247-01). The affinity column was stripped according to manufacturer's protocol, then washed with 5 column volumes of 100 mM CoCl2. The crude material was applied with a loading buffer consisting of 6 M urea, 500 mM NaCl, 50 mM Tris-HCl, pH 7.5 and 20% glycerol. The material was washed with 500 mM NaCl, 50 mM Tris-HCl, pH 7.5 and 10% glycerol. The purified material was eluted with 500 mM imidazole,20 mM Hepes pH 7.4 and 1 M KCl. The protein was then dialyzed overnight in a solution of 25 mM Hepes pH 7.7, 150 mM NaCl, 5 mM MgCl2 and 0.05% NP40. All purified proteins were analyzed by Coomassie and immunoblot analysis. […] Cells were counted using the automated cell counter (BioRad TC-20).Viability was measured by Trypan Blue staining and counted using the cell counter. • Immunoprecipitation. […]

These results are taken from US11260100B2, “Compositions targeting the interaction domain between p27Kip1 and Brk and methods of use thereof to inhibit p27 Y phosphorylation and cdk4 activity” (The Research Foundation for the State University of New York, priority 2014, dated 2022).

The structures appear in SMILES notation.

As for `CC(=O)c1c(C)c2cnc(Nc3ccc(N4CCNCC4)cn3)nc2n(C2CCCC2)c1=O` [PD0332991], in data set [1], the G1 content entry is recorded as “approximately 55%”. Besides, the viability entry in data set [2] is recorded as “unchanged”.
